Test results taken from patent publication US8372885B2, “Organic compounds and their uses” (Novartis AG, priority 2008, dated 2013).

The compounds below were run against T1, P. aeruginosa LpxC (Pseudomonas aeruginosa, UniProt P47205) (assay: biochemical). Settings: 1 nM P. aeruginosa LpxC, 30 min pre-incubation, 2 μM UDP-3-O-(R-3-hydroxydecanoyl)-GlcNAc, pH 7.5, room temperature; read-out: IC50 (LpxC inhibitory activity).
T1 construct: made in house
T1 sequence (P47205 1-303): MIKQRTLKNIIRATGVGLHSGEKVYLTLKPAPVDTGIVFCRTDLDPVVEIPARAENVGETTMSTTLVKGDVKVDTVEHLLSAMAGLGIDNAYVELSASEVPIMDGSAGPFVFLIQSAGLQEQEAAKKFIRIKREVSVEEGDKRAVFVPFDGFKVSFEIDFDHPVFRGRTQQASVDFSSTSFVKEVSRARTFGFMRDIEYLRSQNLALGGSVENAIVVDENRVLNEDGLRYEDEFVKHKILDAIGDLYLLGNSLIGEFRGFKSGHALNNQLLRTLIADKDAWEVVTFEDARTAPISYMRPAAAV
Source text: The LC-MS/MS method for quantitation of LpxC product was developed using an Agilent 1200 Capillary HPLC system coupled to an Applied Biosystems MDS Sciex 4000QTRAP mass spectrometer. Both instruments are controlled using the Applied Biosystems MDS Sciex Analyst software. LpxC reaction product (UDP-3-O—(R-3-hydroxyacyl)-glucosamine) was produced by hydrolysis of LpxC substrate catalyzed by P. a. LpxC and purified using reversed phase chromatography on a Phenomenex Luna C18(2) 4.6×50 mm column. An LpxC product calibration curve was generated to evaluate the sensitivity and dynamic range of the LC-MS/MS method. Briefly, compounds are pre-incubated with 1 nM P. aeruginosa LpxC for 30 min. at room temperature. Reactions are initiated by the addition of 2 μM UDP-3-O—(R-3-hydroxydecanoyl)-GlcNAc. Reactions are conducted in a 96-well plate with a total volume of 100 μL in each well containing 50 mM Sodium phosphate pH 7.5, 0.005% Trition X-100 for 20 min at room temperature. After quenching with 1.8% HOAc (10 μL of a 20% HOAc added to each well), reaction mixtures are analyzed using the LC-MS/MS method and peak areas are transformed into product concentration using a LpxC product calibration curve. […] For IC50 determinations, peak areas are converted to percent inhibition in Microsoft Excel. Percent inhibition values are plotted vs. log compound concentration using XLfit. Data is fit to the four-parameter logistic equation using the non-linear regression algorithm in XLfit to return the IC50 and hill slope values.

| IC50 [nM] | Structure (SMILES) |
| --- | --- |
| 540 | CC(C)(N)[C@H](NC(=O)c1ccc(OCC#Cc2ccc3c(c2)CCO3)cc1)C(=O)NO [Example 67] |
| 1900 | CC(C)(N)[C@H](NC(=O)c1ccc(OCC#Cc2ccc(O)cc2)cc1)C(=O)NO [Example 68] |
| 413 | COc1ccc(C#CCOc2ccc(C(=O)N[C@H](C(=O)NO)C(C)(C)N)cc2)cc1 [Example 69] |
| 2 | COc1cccc(C#CCOc2ccc(C(=O)N[C@H](C(=O)NO)C(C)(C)N)cc2)c1 [Example 70] |
| 1 | COCC#C/C=C/COc1ccc(C(=O)N[C@H](C(=O)NO)C(C)(C)N)cc1 [Example 71] |
| 1 | CC(C)(N)[C@H](NC(=O)c1ccc(OC/C=C/C#CCO)cc1)C(=O)NO [Example 72] |
| 3 | CC#CCOc1ccc(C(=O)N[C@H](C(=O)NO)C(C)(C)N)c(O)c1 [Example 74] |
| 6 | CC(C)(N)[C@H](NC(=O)c1ccc(OCC#CC2=CCC(N)CC2)cc1)C(=O)NO (stereo partly shown) [Example 75] |
| 0.03 | CC(C)(N)[C@H](NC(=O)c1ccc(OCC#CC2=CCC(O)CC2)cc1)C(=O)NO (stereo partly shown) [Example 76] |
| 0.2 | CC(C)(N)[C@H](NC(=O)c1ccc(OCC#Cc2cccc(CO)c2)cc1)C(=O)NO [Example 77] |
| 10 | CC(C)(N)[C@H](NC(=O)c1ccc(OCC#Cc2cccnc2)cc1)C(=O)NO [Example 78] |
| 1 | CC(C)(N)[C@H](NC(=O)c1ccc(OCC#Cc2ccccn2)cc1)C(=O)NO [Example 79] |
| 1 | CC(C)(N)[C@H](NC(=O)c1ccc(OCC#Cc2ccccc2)cc1)C(=O)NO [Example 80] |
| 0.03 | CC(C)(N)[C@H](NC(=O)c1ccc(OCC#CC2CCC2)cc1)C(=O)NO [Example 81] |
| 18 | CC(C)(N)[C@H](NC(=O)c1ccc(OCC2CC2)cc1)C(=O)NO [Example 82] |
| 8 | CC(C)(N)[C@H](NC(=O)c1ccc(OCCC2CC2)cc1)C(=O)NO [Example 83] |
